Measurements published in patent US20190100534A1, “Cephem Compounds with Latent Reactive Groups” (Gladius Pharmaceuticals, Inc., priority 2017, published 2019).

What was measured:
[1] = tested on: Pseudomonas aeruginosa (PA); experiment: MIC determination; type: cell-based; details: Pseudomonas aeruginosa; PA; CAMH broth, 20 μM Apo-Transferrin, 37° C., 18 hours; read-out: Minimum Inhibitory Concentrations, PA
In short: (§1)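 Growth inhibition was judged by well clarity after 18 h at 37 °C in transferrin-supplemented (20 μM apo form) CAMH. Standardized suspensions (0.08-0.1 OD600) were added within 30 min of preparation.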

[2] = tested on: Pseudomonas aeruginosa PA (RR-1); experiment: MIC determination; type: cell-based; details: Pseudomonas aeruginosa; PA (RR-1); CAMH broth, 20 μM Apo-Transferrin, 37° C., 18 hours; read-out: Minimum Inhibitory Concentrations, PA (RR-1)
In short: as §1

[3] = tested on: Pseudomonas aeruginosa PA (RR-2); experiment: MIC determination; type: cell-based; details: Pseudomonas aeruginosa; PA (RR-2); CAMH broth, 20 μM Apo-Transferrin, 37° C., 18 hours; read-out: Minimum Inhibitory Concentrations, PA (RR-2)
In short: as §1

[4] = tested on: Pseudomonas aeruginosa PA (URMC-2); experiment: MIC determination; type: cell-based; details: Pseudomonas aeruginosa; PA (URMC-2); CAMH broth, 20 μM Apo-Transferrin, 37° C., 18 hours; read-out: Minimum Inhibitory Concentrations, PA (URMC-2)
In short: as §1

[5] = tested on: Pseudomonas aeruginosa PA-RR-(980151052); experiment: MIC determination; type: cell-based; details: Pseudomonas aeruginosa; PA-RR-(980151052); CAMH broth, 20 μM Apo-Transferrin, 37° C., 18 hours; read-out: Minimum Inhibitory Concentrations, PA-RR-(980151052)
In short: as §1

[6] = tested on: Pseudomonas aeruginosa PA-RR-(G7305586); experiment: MIC determination; type: cell-based; details: Pseudomonas aeruginosa; PA-RR-(G7305586); CAMH broth, 20 μM Apo-Transferrin, 37° C., 18 hours; read-out: Minimum Inhibitory Concentrations, PA-RR-(G7305586)
In short: as §1

[7] = tested on: Pseudomonas aeruginosa PA-RR-(purple Fre D); experiment: MIC determination; type: cell-based; details: Pseudomonas aeruginosa, CAMH broth, 20 μM Apo-Transferrin, 37° C., 18 hours, read-out: Minimum Inhibitory Concentrations, PA-RR-(purple Fre D)
In short: as §1

EC (RR -1) = experiment: MIC determination; type: cell-based, Escherichia coli; details: CAMH broth, 20 μM Apo-Transferrin, 37° C., 18 hours
In short: as §1

EC (RR -2) = experiment: MIC determination; type: cell-based, Escherichia coli; details: CAMH broth, 20 μM Apo-Transferrin, 37° C., 18 hours
In short: as §1

EC (URMC-1) = experiment: MIC determination; type: cell-based, Escherichia coli; details: Escherichia coli, CAMH broth, 20 μM Apo-Transferrin, 37° C., 18 hours, read-out: Minimum Inhibitory Concentrations, EC (URMC-1)
In short: as §1

EC (URMC-2) = experiment: MIC determination; type: cell-based, Escherichia coli; details: Escherichia coli, CAMH broth, 20 μM Apo-Transferrin, 37° C., 18 hours, read-out: Minimum Inhibitory Concentrations, EC (URMC-2)
In short: as §1

EC (URMC-3) = experiment: MIC determination; type: cell-based, Escherichia coli; details: Escherichia coli, CAMH broth, 20 μM Apo-Transferrin, 37° C., 18 hours, read-out: Minimum Inhibitory Concentrations, EC (URMC-3)
In short: as §1

EC(ATCC NDM-1) = experiment: MIC determination; type: cell-based, Escherichia coli; details: Escherichia coli, CAMH broth, 20 μM Apo-Transferrin, 37° C., 18 hours, read-out: Minimum Inhibitory Concentrations, EC(ATCC NDM-1)
In short: as §1

EC(JMI OXA-48) = experiment: MIC determination; type: cell-based, Escherichia coli; details: Escherichia coli, CAMH broth, 20 μM Apo-Transferrin, 37° C., 18 hours, read-out: Minimum Inhibitory Concentrations, EC(JMI OXA-48)
In short: as §1

EC(KB1 CTX-M-15) = experiment: MIC determination; type: cell-based, Escherichia coli; details: Escherichia coli, CAMH broth, 20 μM Apo-Transferrin, 37° C., 18 hours, read-out: Minimum Inhibitory Concentrations, EC(KB1 CTX-M-15)
In short: as §1

EC(KB2 CTX-M-15) = experiment: MIC determination; type: cell-based, Escherichia coli; details: Escherichia coli, CAMH broth, 20 μM Apo-Transferrin, 37° C., 18 hours, read-out: Minimum Inhibitory Concentrations, EC(KB2 CTX-M-15)
In short: as §1

KP (ATCC KPC-3) = experiment: MIC determination; type: cell-based, Klebsiella pneumoniae; details: CAMH broth, 20 μM Apo-Transferrin, 37° C., 18 hours
In short: as §1

KP (GJ 5659 TEM-26) = experiment: MIC determination; type: cell-based, Klebsiella pneumoniae; details: CAMH broth, 20 μM Apo-Transferrin, 37° C., 18 hours
In short: as §1

KP (RR -1) = experiment: MIC determination; type: cell-based, Klebsiella pneumoniae; details: CAMH broth, 20 μM Apo-Transferrin, 37° C., 18 hours
In short: as §1

KP (URMC-1) = experiment: MIC determination; type: cell-based, Klebsiella pneumoniae; details: CAMH broth, 20 μM Apo-Transferrin, 37° C., 18 hours
In short: as §1

KP (URMC-2) = experiment: MIC determination; type: cell-based, Klebsiella pneumoniae; details: CAMH broth, 20 μM Apo-Transferrin, 37° C., 18 hours
In short: as §1

KP (URMC-3) = experiment: MIC determination; type: cell-based, Klebsiella pneumoniae; details: CAMH broth, 20 μM Apo-Transferrin, 37° C., 18 hours
In short: as §1

KP(GJ 5934 TEM-26) = experiment: MIC determination; type: cell-based, Klebsiella pneumoniae; details: CAMH broth, 20 μM Apo-Transferrin, 37° C., 18 hours
In short: as §1

KP(JMI KPC-2) = experiment: MIC determination; type: cell-based, Klebsiella pneumoniae; details: CAMH broth, 20 μM Apo-Transferrin, 37° C., 18 hours
In short: as §1

KP(ATCC TEM-10/TEM-12) = type: cell-based, Klebsiella pneumoniae; details: CAMH broth, 20 μM Apo-Transferrin, 37° C., 18 hours
In short: as §1

ENA (URMC-1) = experiment: MIC determination; type: cell-based, Enterobacter aerogenes; details: Klebsiella aerogenes, CAMH broth, 20 μM Apo-Transferrin, 37° C., 18 hours, read-out: Minimum Inhibitory Concentrations, ENA (URMC-1)
In short: as §1

ENA (URMC-2) = experiment: MIC determination; type: cell-based, Enterobacter aerogenes; details: Klebsiella aerogenes, CAMH broth, 20 μM Apo-Transferrin, 37° C., 18 hours, read-out: Minimum Inhibitory Concentrations, ENA (URMC-2)
In short: as §1

CF (RR -1) = experiment: MIC determination; type: cell-based, Citrobacter freundii; details: CAMH broth, 20 μM Apo-Transferrin, 37° C., 18 hours
In short: as §1

CC(C)(O/N=C(\C(=O)N[C@@H]1C(=O)N2C(C(=O)O)=C(C=Cc3ccc(C[N+]4(C)Cc5cc(O)c(O)c(Cl)c5C4)cc3)CS[C@H]12)c1csc(N)n1)C(=O)O (mixture of isomers) [Compound 432, 2-(4-((E/Z)-2-((6R,7R)-7-((Z)-2-(2-aminothiazol-4-yl)-2-(((2-carboxypropan-2-yl)oxy)imino)acetamido)-2-carboxy-8-oxo-5-thia-1-azabicyclo[4.2.0]oct-2-en-3-yl)vinyl)benzyl)-4-chloro-5,6-dihydroxy-2-methylisoindolin-2-ium]
MIC [1]: 0.25 µg/mL | MIC [2]: 1 µg/mL | MIC [3]: 0.13 µg/mL | MIC [4]: 0.5 µg/mL | MIC [5]: 0.25 µg/mL | MIC [6]: 1 µg/mL | MIC [7]: 1 µg/mL | Mimimum Inhibitory Concentrations, EC (RR -1) (EC (RR -1)): ≤0.06 microgram/mL | Mimimum Inhibitory Concentrations, EC (RR -2) (EC (RR -2)): ≤0.06 microgram/mL | MIC (EC (URMC-1)): 0.5 µg/mL | MIC (EC (URMC-2)): ≤ 0.06 µg/mL | MIC (EC (URMC-3)): 0.13 µg/mL | MIC (EC(ATCC NDM-1)): > 64 µg/mL | MIC (EC(JMI OXA-48)): 0.5 µg/mL | MIC (EC(KB1 CTX-M-15)): 1 µg/mL | MIC (EC(KB2 CTX-M-15)): 1 µg/mL | Minimum Inhibitory Concentrations, KP (ATCC KPC-3) (KP (ATCC KPC-3)): >64 microgram/mL | Minimum Inhibitory Concentrations, KP (GJ 5659 TEM-26) (KP (GJ 5659 TEM-26)): 1 microgram/mL | Mimimum Inhibitory Concentrations, KP (RR -1) (KP (RR -1)): 0.25 microgram/mL | Minimum Inhibitory Concentrations, KP (URMC-1) (KP (URMC-1)): 0.13 microgram/mL | Minimum Inhibitory Concentrations, KP (URMC-2) (KP (URMC-2)): ≤0.06 microgram/mL | Minimum Inhibitory Concentrations, KP (URMC-3) (KP (URMC-3)): ≤0.06 microgram/mL | Minimum Inhibitory Concentrations, KP(GJ 5934 TEM-26) (KP(GJ 5934 TEM-26)): 0.13 microgram/mL | Minimum Inhibitory Concentrations, KP(JMI KPC-2) (KP(JMI KPC-2)): 64 microgram/mL | Minimum Inhibitory Concentrations, KP(ATCC TEM-10/TEM-12) (KP(ATCC TEM-10/TEM-12)): 8 microgram/mL | MIC (ENA (URMC-1)): 1 µg/mL | MIC (ENA (URMC-2)): 0.25 µg/mL | Mimimum Inhibitory Concentrations, CF (RR -1) (CF (RR -1)): 0.5 microgram/mL
